For data set [1] the following is noted: background statement; cited from earlier work.
Data set [2] is described as follows: Dissolution studies in simulated gastric and intestinal fluids. The format is physicochemical.
Protocol: The formulation was split into 2 equal aliquots and lyophilized. Simulated gastric and intestinal fluids were prepared, with the simulated gastric fluid consisting of HCl, NaCl, Pepsin, and water while the simulated intestinal fluid consisted of NaOH, KH2PO4, and water. […] This experiment was protected from light. At various time points, 0.5 mL aliquots of fluid were removed from the chambers and analyzed via HPLC. The volume removed was replaced with fresh simulated fluid.
For data set [3] the following is noted: background statement; cited from earlier work. The source holds these as a separate data set.
The nature of data set [4]: Stability studies: HPLC of resveratrol remaining in aqueous solution. The format is physicochemical. As for the experimental part: The sample can then be analyzed via HPLC to determine the amount of resveratrol in the composition. This amount of resveratrol can be compared to the initially determined amount. This comparison amount can be used to determine the percent degradation.
Stability was determined by HPLC analysis of a 1% PAMAM-G4 amine dendrimer-resveratrol complex at 21° C. (ambient temperature), 37° C., and 4° C. […]

For orientation: half-life means how long it takes for the measured level to halve. A word on the aqueous solubility: it is the dissolved amount per volume that the medium holds. With `Oc1ccc(C=Cc2cc(O)cc(O)c2)cc1` [Resveratrol, 3,4′,5-trihydroxystilbene], in data set [1], the half-life is 8 to 14 min, the metabolic stability entry is on record as “poor” and the oral bioavailability entry is given as “low”. In addition, the “time to dissolution (still dissolving at final time point)” value in data set [2] (simulated gastric fluid) was more than 4.5 h. For the same molecule, the “time to dissolution (still dissolving at final time point)” value in data set [2] (simulated intestinal fluid) is more than 4.5 h. Further, the aqueous solubility in data set [3] is 15 to 40 ng/mL. In addition, the drug remained intact result in data set [4] (4° C., day 29, aqueous solution) is reported as “no drug remained”. For the same molecule, the resveratrol remained intact result in data set [4] (ambient temperature (21° C.), day 4, aqueous solution) is “completely degraded”.
